Tests used:
[1] = biological target: CDK8/Cyclin C (Homo sapiens) (UniProt P49336+P24863); test: Inhibition of human CDK8/Cyc C expressed in Sf21 cells at 1 uM measured after 1 hr by fluorescence plate reader relative to control
[2] = biological target: Cyclin-C/Cyclin-dependent kinase 19 (Homo sapiens) (UniProt Q9BWU1+P24863); test: Inhibition of humanGST-tagged CDK19/Cyc C expressed in Sf21 cells at 1 uM measured after 1 hr by fluorescence plate reader relative to control
SW480 = test: Antitumor activity against human SW480 cells xenografted in BALB/c nude mouse assessed as inhibition of tumor growth at 50 mg/kg, po administered once daily measured after 14 days relative to control; format: functional; details: time 14 day
RPMI-8226 = test: Antiproliferative activity against human RPMI-8226 assessed as inhibition of cell growth at 1 uM after 8 days measured after Celltiter-Glo assay relative to control; format: functional; details: Homo sapiens, RPMI-8226, 192 h, time 8 day

| SMILES | inhibition [1] [%] | inhibition [2] [%] | T/C (SW480) [%] | inhibition at 1 µM (RPMI-8226) [%] |
| --- | --- | --- | --- | --- |
| Cn1cc(-c2ccncc2/C=C/C(=O)Nc2ccc3c(c2)CN(CC(F)(F)F)CC3)cn1 | 102 | 100 | 43 | 59 |
| O=C(/C=C/c1cnccc1-c1cnn(C2CC2)c1)Nc1ccc(CN2CCOCC2)cc1 | 92 | 102 | 37 | 53 |
| O=C(/C=C/c1cnccc1-c1cnn(C2CC2)c1)Nc1ccc(CN2CCOCC2)cc1F | 99 | 99 | 36 | 53 |
| Cn1cc(-c2ccncc2/C=C/C(=O)Nc2ccc3c(c2)CN(CC(F)(F)F)C3)cn1 | 98 | 102 | 31 | 64 |
| Cn1cc(-c2c(F)cncc2/C=C/C(=O)Nc2ccc(CN3CC(F)(F)C3)cc2)cn1 | 103 | 102 | 36 | 65 |
| Cn1cc(-c2ccncc2/C=C/C(=O)Nc2ccc(CN3CCOC(C)(C)C3)cc2)cn1 | 97 | 101 | – | 61 |
| O=C(/C=C/c1cnccc1-c1ccc2ncn(CC3CC3)c2c1)Nc1ccc(CN2CCOCC2)cc1 | 95 | 96 | – | 60 |
| O=C(/C=C/c1cncc(F)c1-c1cnn(C2CC2)c1)Nc1ccc(CN2CCOCC2)cc1F | 101 | 96 | 36 | 64 |
| O=C(/C=C/c1cnccc1-c1cnn(C2CC2)c1)Nc1ccc2c(c1)CN(CC(F)(F)F)C2 | 103 | 101 | – | 47 |
| Cn1cc(-c2ccncc2/C=C/C(=O)Nc2ccc3c(c2)CCO3)cn1 | 96 | 95 | – | 55 |
| Cn1cc(-c2ccncc2/C=C/C(=O)Nc2cc(F)c(CN3CCOCC3)cc2F)cn1 | 94 | 91 | – | 66 |
| Cn1cc(-c2ccncc2/C=C/C(=O)Nc2ccc(Cn3ccnc3)cc2)cn1 | 102 | 98 | – | 64 |
| Cn1cc(-c2ccncc2/C=C/C(=O)Nc2ccc3c(c2)CN(CC(F)F)C3)cn1 | 105 | 94 | – | 63 |
| CC(C)(O)Cc1ccc(NC(=O)/C=C/c2cnccc2-c2cnn(C3CC3)c2)cc1 | 100 | 103 | – | 61 |
| O=C(/C=C/c1cncc(F)c1-c1cnn(C2CC2)c1)Nc1ccc2c(c1)CN(CC(F)(F)F)C2 | 104 | 100 | 29 | 58 |
| Cn1cc(-c2ccncc2/C=C/C(=O)Nc2ccc3c(c2)CCCC3=O)cn1 | 96 | 92 | – | 56 |

| SMILES | inhibition [1] [%] | inhibition [2] [%] | T/C (SW480) [%] | inhibition at 1 µM (RPMI-8226) [%] |
| --- | --- | --- | --- | --- |
| Cn1cc(-c2ccncc2/C=C/C(=O)Nc2ccc3c(c2)OCC3)cn1 | 100 | 94 | – | 55 |
| Cn1cnc2ccc(-c3ccncc3/C=C/C(=O)Nc3ccc4c(ccn4CC(F)(F)F)c3)cc21 | 85 | 84 | – | 63 |
| O=C(/C=C/c1cnccc1-c1cnn(C2CC2)c1)Nc1ccc(CN2CC(F)C2)cc1 | 107 | 99 | – | 58 |
| Cn1cc(-c2ccncc2/C=C/C(=O)Nc2ccc3ccncc3c2)cn1 | 94 | 94 | – | 55 |
| Cn1cc(-c2ccncc2/C=C/C(=O)Nc2ccc(Oc3ccncc3)cc2)cn1 | 95 | 96 | – | 54 |
| O=C(/C=C/c1cnccc1-c1cnn(C2CC2)c1)Nc1ccc(CN2CC(F)(F)C2)cc1 | – | – | 51 | 58 |
| COCc1ccc(NC(=O)/C=C/c2cnccc2-c2cnn(C)c2)cc1 | 100 | 100 | – | 65 |
| O=C(/C=C/c1cncc(F)c1-c1cnn(C2CC2)c1)Nc1ccc(CN2CC3CC(C2)O3)cc1 | 102 | 101 | – | 59 |
| CC(C)(F)Cc1ccc(NC(=O)/C=C/c2cncc(F)c2-c2cnn(C3CC3)c2)cc1 | 99 | 101 | – | 62 |
| O=C(/C=C/c1cnccc1-c1cnn(C2CC2)c1)Nc1ccc2c(ccn2CC(F)(F)F)c1 | 99 | 98 | – | 57 |
| Cn1cc(-c2ccncc2/C=C/C(=O)Nc2ccc(CN3CC4CC3CO4)cc2)cn1 (centres undefined) | 100 | 96 | – | 58 |
| O=C(/C=C/c1cnccc1-c1cnn(C2CC2)c1)Nc1ccc2c(c1)CN(C(=O)C(F)(F)F)CC2 | 98 | 98 | – | 57 |
| Cn1ccc2cc(NC(=O)/C=C/c3cnccc3-c3cnn(C4CC4)c3)ccc21 | 100 | 97 | – | 61 |
| Cn1cc(-c2ccncc2/C=C/C(=O)Nc2ccc(CC(F)(F)F)cc2)cn1 | 99 | 92 | – | 60 |
| Cn1cc(-c2ccncc2/C=C/C(=O)Nc2ccc(CC#N)cc2)cn1 | 92 | 95 | – | 57 |

From ChEMBL document CHEMBL4742385 (2019)
